Source: patent publication US12264163B2, “Compounds and methods for treating fibrotic pathologies” (Mayo Foundation for Medical Education and Research, priority 2019, dated 2025)

What was measured:
CTGF, COL1A1, ACTA2, FN1 = assay: Profibrotic / matrix remodeling gene expression by qPCR in fibroblasts; type: cell-based, human
Method: Genes which encode Connective tissue growth factor (CTGF), Collagen I (COL1A1), αSMA (ACTA2), and Fibronectin (FN1) are reduced by 24 hour treatment with DHX (10 μM), +/−SCH 39166 (3 μM). N=3 (****p<0.0001, ***p<0.001, *p<0.05 vs. 0.1% DMSO vehicle control)
IPF patient-derived fibroblasts cultured in media containing 0.1% FBS were stimulated for 24 hours with 2 ng/mL TGFβ and 10 μM DHX prior to RNA isolation. Genes which encode for ECM crosslinking: transglutaminase 2 (TGM2), lysyl oxidase and lysyl oxidase-like enzymes (LOX and LOXL1-4), ECM degradation: uPA (PLAU), tPa (PLAT), cathepsin K (CTSK), and matrix metalloprotease-14 (MMP14) and ECM protease inhibitors: metalloprotease inhibitor 3 (TIMP3), and plasminogen activator inhibitor 1 (SERPINE1) were measured. N=3. (****p<0.0001, ***p<0.001, **p<0.01, *p<0.05 vs. 0.1% DMSO vehicle control non-TGFβ treated), (++++p<0.0001, ++p<0.01, +p<0.05 vs. 0.10% DMSO vehicle control TGFβ treated).
For all other in vitro experiments, cells were treated as indicated prior to RNA isolation using RNeasy Plus Mini Kit (Qiagen) according to manufacturer's instructions. Isolated RNA (250 ng) was then used to synthesize cDNA using SuperScript VILO (Invitrogen). Quantitative PCR was performed using FastStart Essential DNA Green Master (Roche) and analyzed using a LightCycler 96 (Roche). Data are expressed as a fold change by ΔΔCt relative to GAPDH. For in vivo experiments, tissue was immediately frozen, and stored at −80° C. RNA isolation, cDNA synthesis, and qPCR analysis were performed as above.

NIH-3T3 cells = assay: Matrix remodeling measured by atomic force microscopy; type: cell-based, mouse; conditions: TGFβ + ascorbic acid 72 hours, then 10 μM DHX 72 hours
Method: NIH-3T3 cells plated onto gelatin-coated tissue culture plates stimulated to deposit matrix with 2 ng/mL TGFβ and 20 μM ascorbic acid for 72 hours prior to AFM microindentation analysis to measure stiffness (elastic modulus). The same dishes were then treated +/−10 μM DHX in the same media for another 72 hours and AFM analysis. The matrices were decellularized and passage 3 NHLFs were plated onto the matrices; after 24 hours RNA was collected and expression of profibrotic genes was analyzed. AFM analysis N=2. 75 indentation measurements were made for each plate. The box and whisker plots show min to max, quartile, and mean from one representative experiment (****p<0.0001 vs. 0.1% DMSO vehicle control) (++p<0.01, +p<0.05 vs. the same culture plate after the first 72 hour incubation). […]
Matrix Remodeling Measured by Atomic Force Microscopy: NIH-3T3 cells were plated to confluence onto gelatin coated (Cell Biologics) AFM compatible tissue culture dishes (Willco) in DMEM containing 10% FBS. […] Microindentations were performed using a 2.5 μm radius sphere-tipped probe (Novascan, IA, USA) with a spring constant determined at about 100 pN/nm by thermal fluctuation method. For each dish, 3 different areas were analyzed. […] The Young's modulus E was determined by the fitting of force curve by Hertz model using NanoScope Analysis software (Bruker) and considering Poisson's ratio of 0.5. […]

In the case of `Oc1cc2c(cc1O)[C@H]1c3ccccc3CN[C@@H]1CC2` (racemic) [Dihydrexidine], the “expression of matrix crosslinking, protease inhibitor and matrix degradation genes” value (CTGF, COL1A1, ACTA2, FN1; IPF patient derived fibroblasts, 2 ng/mL TGFβ + 10 μM DHX, 24 hours) is reported as “reversed the effects of TGFβ”, the “expression of profibrotic genes CTGF, COL1A1, ACTA2, FN1” value (CTGF, COL1A1, ACTA2, FN1; IPF patient-derived lung fibroblasts, 10 μM, 24 hour) is reported as “reduced” and the “profibrotic gene expression and extracellular matrix accumulation with constitutively active TAZ” value (CTGF, COL1A1, ACTA2, FN1; NIH-3T3 cells expressing doxycycline-inducible TAZ4SA) is reported as “no effect on profibrotic gene expression or extracellular matrix accumulation”. The “profibrotic gene expression in human dermal fibroblasts” value (CTGF, COL1A1, ACTA2, FN1; human dermal fibroblasts, 24 hours +/− 2 ng/mL TGFβ) was “blocks profibrotic gene expression” and the “stiffness of cells and cell-derived matrix (AFM)” value (NIH-3T3 cells) was “significantly reduced the observed stiffness”.
